Earlier results on one molecule are cited in patent publication US20190177279A1, “CARBOXYLIC ACID AROMATIC 1,2-CYCLOPROPYLAMIDES” (Bayer Pharma Aktiengesellschaft, priority 2017, published 2019).

For data set [1] the following is noted: prior art, Bioorg Med Chem Lett 2010; cited from earlier work.
The conditions of data set [2]: prior art, Bioorg Med Chem Lett 2010; cited from earlier work. The source holds these as a separate data set.
For data set [3] the following is noted: prior art, Bioorg Med Chem Lett 2010; cited from earlier work. This is another data set of the same source.
The conditions of data set [4]: prior art, Bioorg Med Chem Lett 2010; cited from earlier work. The source holds these as a separate data set.

As to `C[C@@H]1CC[C@H](C)N1C(=O)c1ccc([C@@H](C)NC(=O)C2(NC(=O)c3cc(F)cc(C(F)(F)F)c3)CC2)c(F)c1`, the penetration profile entry in data set [1] was “acceptable”. The aqueous solubility entry in data set [2] is reported as “reasonable”. In data set [3], the “pharmacokinetic profile in rat” value was “reasonable”. Besides, the human metabolic stability result in data set [4] is “poor”.
